Test results as given in US20180104232A1, “METHODS FOR DETERMINING PROGNOSIS FOR BREAST CANCER PATIENTS” (The University of Chicago, priority 2015, published 2018).

Experiments:
CCL7 = conditions: TAMs isolated from treated mice
Experimental: (§1) FIG. 20A-F: A) Final tumor weights shown for nude mice treated with the anti-Progranulin neutralizing antibody A23 alone or in combination with the CCR5 inhibitor Maraviroc for 21 days starting at day 3. B) The corresponding growth curves for the treated mice. Tumor volume is calculated as (π/6)*length2*width C) To measure the _rst step of metastasis we examine the relative number of tumor cells intravasating into the blood stream. This is calculated as the relative amount of human GAPDH compared to mouse Gapdh mRNA from cells isolated from blood after treatment. D) Tumor-associated macrophages were isolated from treated mice and qRT-PCR was performed to determine the relative amount of mRNA with Gapdh serving as the loading control; each set of four bars is data from the control, A23, Maraviroc, and A23+Maraviroc, respectively. E-F) Tumor cells were isolated from tumors stripped of mouse cells. RNA was collected and Relative CCL5 and Progranulin (GRN) were calculated with GAPDH as a loading control. *0.05>p>0.01 ** 0.01>p>0.001

CCL5 = conditions: tumor cells isolated from treated mice
Experimental: as §1

tumors in nude mice = experiment: Treatment of tumor-bearing nude mice with A23 and/or Maraviroc (tumor weight, growth, intravasation); assay type: in vivo, mouse; conditions: agent alone; nude mice treated for 21 days starting at day 3
Text: B) The corresponding growth curves for the treated mice.

[1] = tested on: mouse basal-like M6C cells; experiment: Relative CCL5 mRNA in M6C cells treated with JQ1; assay type: cell-based; conditions: 300 nM JQ1, GAPDH loading control
Experimental: (§2) FIG. 21: Relative levels of HMGA2 (first bar of each set) and CCL5 (second bar of each set) are shown for the human triple-negative BM1 cell line (top) and the mouse basal-like breast cancer M6C cell line (bottom) treated with the bromodomain inhibitor JQ1, known to block HMGA2 activity. Relative levels of mRNA were calculated using the formula RQ=2-^˜˜CT with GAPDH as the loading control*0.05>p>0.01 ***0.001>p.
(§3) To overcome resistance to Maraviroc and increased CCL5 levels, the inventors are treating the tumor cells with JQ1, a bromodomain inhibitor which regulates HMGA2. HMGA2 is an upstream regulator of CCL5. Additionally, both genes expression levels are included in our prognostic signature. […] We plan to in the future test whether JQ1 in conjunction with Maraviroc are able to lead to a reduction in metastasis in a mouse model.

human TNBC BM1 cells = experiment: Relative CCL5 mRNA in BM1 cells treated with JQ1; assay type: cell-based; conditions: 300 nM JQ1, GAPDH loading control
Experimental: as §2, §3

Molecule: Maraviroc
- CCL7 in the tumor-associated macrophages (CCL7): more CCL7
- CCL5 secreted by tumor cells in response to therapy (CCL5): more CCL5
- effectiveness of treatment in tumor-bearing mice (tumors in nude mice): not effective

Molecule: Cc1sc2c(c1C)C(c1ccc(Cl)cc1)=N[C@@H](CC(=O)OC(C)(C)C)c1nnc(C)n1-2 [JQ1]
- CCL5 expression [1]: significant reduction
- CCL5 expression (human TNBC BM1 cells): significant reduction
